Reference: patent US20250382256A1, “DICARBOXYLIC ACID DIESTERS” (DSM IP Assets B.V., priority 2018, published 2025)
Where a name gives a salt, the structure may show the parent alone. Read-outs that look alike come from different tables or passages of the source.

Key:
rumen liquor = experiment: In vitro test for methane production (modified Hohenheim Forage value Test, HFT); assay type: cell-based; conditions: read-out: Methane inhibition
Description: A modified version of the “Hohenheim Forage value Test (HFT)” was used for testing the effect of specific compounds on the rumen functions mimicked by this in-vitro system. Principle: Feed (i.e. a TMR) (300 mg) is given into a syringe with a composition of rumen liquor and an appropriate mixture of buffers (i.e. rumen-fluid buffer mix: 25 ml) and the substances to be tested in the concentrations as outlined in table 2 (the inhibitors to be tested are diluted in ethanol to reach the respective concentration of dry matter in 50 μl). The solution is incubated at 39° C. for 8 h. The quantity of produced gas is measured and put into a formula for conversion. After the incubation the composition of gas is measured with a GC. TMR (44% concentrate, 6% hay, 37% maize silage and 13% grass silage) is sieved to 1 mm and weighed exactly into the syringes. One run contains 4 repetitions, each with 16 syringes and comprises substrate controls, which display the gas production without the effect of the tested compounds, carrier controls, which display the gas production in the presence of the carrier (solvent) only (i.e. EtOH used to dissolve the test compounds), and test samples (in the carrier), which contain the test substances in varying concentrations as outlined in table 2. The components are mixed in a Woulff bottle in following order: • 711 ml water • 0.18 ml trace element solution • 355.5 ml buffer solution • 355.5 ml mass element solution The completed solution is warmed up to 39° C. followed by the addition of 1.83 ml sodium salt solution and the addition of reduction solution at 36° C. The rumen liquor (750 ml) is added, when the indicator turns colorless under continued agitation and CO2-gassing. The rumen-fluid-buffer-mix is added to the glass syringe prepared as outlined above containing the TMR and the active to be tested. The syringes are then incubated for 8 hours at 39° C. under gentle agitation. After 8 the volume of gas produced is measured, and the percentage of methane in the gas phase is determined by gas chromatography.

[1] = Vapor pressure of the purified diester; assay type: physicochemical; conditions: purified product

Structure (SMILES) | inhibition at 2.5 µM (rumen liquor; 8 h) [%] | inhibition at 5 µM (rumen liquor; 8 h) [%] | inhibition at 10 µM (rumen liquor; 8 h) [%] | vapor pressure [1] [mbar] | inhibition at 2.5 µM (rumen liquor; 2.5 μmol/l, 8 h at 39° C., TMR in rumen-fluid buffer mix, reduction versus substrate control) [%] | inhibition at 5 µM (rumen liquor; 5 μmol/l, 8 h at 39° C., TMR in rumen-fluid buffer mix, reduction versus substrate control) [%] | inhibition at 10 µM (rumen liquor; 10 μmol/l, 8 h at 39° C., TMR in rumen-fluid buffer mix, reduction versus substrate control) [%]
O=C(CC(=O)OCCCO[N+](=O)[O-])OCCCO[N+](=O)[O-] [(I-a), bis(3-(nitrooxy)propyl) malonate] | 72 | 97 | 99 | 0.00133 | – | – | –
O=C(/C=C/C(=O)OCCCO[N+](=O)[O-])OCCCO[N+](=O)[O-] [(I-b), bis(3-(nitrooxy)propyl) fumarate] | – | 96 | 99 | 0.00133 | – | – | –
O=C(CCC(=O)OCCCO[N+](=O)[O-])OCCCO[N+](=O)[O-] [(I-c), bis(3-(nitrooxy)propyl) succinate] | – | – | 99 | 0.00133 | – | – | –
O=[N+]([O-])OCCCO [Ref, 3-nitrooxypropanol, reference compound] | – | – | – | – | 32 | 86 | 99
